Consider 3 compounds from ChEMBL document CHEMBL1201862, “PubChem BioAssay data set” (2004).

The nature of assay [1]: cytotoxicity toward DRD oncogenic fibroblasts, dose response, cell-based, non-viral oncogenic, luminescence (AID 1934). Type of assay: functional. As to conditions: Homo sapiens.
Assay [2] can be described thus: HepG2 cell cytotoxicity, dose response, cytotoxicity control for non-replicating M. tuberculosis project (AID 489018). To be noted: Mycobacterium tuberculosis. Type of assay: functional.
Assay [3] is described as follows: inhibitors of firefly luciferase expression or activity, dose response, H4 neuroglioma cells, luminescence (AID 1990). The class given is functional, cell-based.
In assay [4] the target is T1, Ubiquitin-conjugating enzyme E2 N (Homo sapiens, UniProt P61088).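 Also: Dose-response confirmation in a TR-FRET assay detecting UBC13-driven polyubiquitin chain formation, inhibition measured.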
T1 sequence (P61088 whole entry): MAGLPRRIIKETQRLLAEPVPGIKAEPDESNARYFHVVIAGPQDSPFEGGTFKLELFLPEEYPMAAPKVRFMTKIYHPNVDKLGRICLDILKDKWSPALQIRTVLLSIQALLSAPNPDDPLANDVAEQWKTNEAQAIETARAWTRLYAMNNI
The class given is functional.

The test system of another assay is HEK293. The experiment in a line: optical interference in Abeta FP readout, dose response, artefact control for IDE activator project, biochemical, fluorescence polarization (AID 588442). Type of assay: functional, cell-based. To be noted: Homo sapiens.
Assay [5] deals with Serine/threonine-protein kinase PLK3 (Homo sapiens, UniProt Q9H4B4). The class given is functional.
In assay [6] the target is Serine/threonine-protein kinase D3 (Homo sapiens, UniProt O94806). Type of assay: functional.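 Also: determined within a kinase panel screen, with PRKCN as the panel member.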
Another assay has as its target T2, Aurora kinase A (Homo sapiens, UniProt O14965).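 Also: value from the Navigating the Kinome kinase panel profiling, panel entry STK6.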
T2 sequence (O14965 whole entry): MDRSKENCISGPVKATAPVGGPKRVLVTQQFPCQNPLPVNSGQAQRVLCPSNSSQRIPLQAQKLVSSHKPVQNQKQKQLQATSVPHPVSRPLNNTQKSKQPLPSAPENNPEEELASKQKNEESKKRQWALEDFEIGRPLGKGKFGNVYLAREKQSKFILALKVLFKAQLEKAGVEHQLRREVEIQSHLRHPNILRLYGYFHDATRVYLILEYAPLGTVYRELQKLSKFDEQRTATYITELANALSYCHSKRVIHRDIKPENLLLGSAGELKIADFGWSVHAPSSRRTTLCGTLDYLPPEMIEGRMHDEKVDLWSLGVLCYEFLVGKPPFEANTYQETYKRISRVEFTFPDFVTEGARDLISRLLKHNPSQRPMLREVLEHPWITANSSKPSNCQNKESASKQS
Type of assay: functional.

The target in assay [7] is MAP kinase-activated protein kinase 2 (Homo sapiens, UniProt P49137). Type of assay: functional.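 Also: measured as one member of a kinome-wide kinase panel.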
The target in assay [8] is Serine/threonine-protein kinase PAK 4 (Homo sapiens, UniProt O96013). Type of assay: functional.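 Also: value obtained within a kinome profiling panel in which PAK4 was one of the panel members.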
Assay [9] concerns the target Ribosomal protein S6 kinase alpha-5 (Homo sapiens, UniProt O75582). Type of assay: functional.
In assay [10] the target is Tyrosine-protein kinase ITK/TSK (Homo sapiens, UniProt Q08881). Type of assay: functional.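 Also: affinity for ITK measured as one member of a broad kinase panel profiling binding across the kinome.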
Assay [11] has as its target Mitogen-activated protein kinase 13 (Homo sapiens, UniProt O15264). Type of assay: functional.
In assay [12] the target is Glycogen synthase kinase-3 alpha (Homo sapiens, UniProt P49840). The class given is functional.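 Also: GSK3A result taken from a broad kinome-wide kinase panel.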
For assay [13], the target named is Inhibitor of nuclear factor kappa-B kinase subunit alpha (Homo sapiens, UniProt O15111). The class given is functional.
Assay [14] addresses RAC-alpha serine/threonine-protein kinase (Homo sapiens, UniProt P31749). The class given is functional.
The target of assay [15] is 3-phosphoinositide-dependent protein kinase 1 (Homo sapiens, UniProt O15530). The class given is functional.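 Also: value comes from the Navigating the Kinome panel, PDPK1 member.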
The target in assay [16] is Receptor tyrosine-protein kinase erbB-4 (Homo sapiens, UniProt Q15303). The class given is functional.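 Also: ERBB4 member of a kinome-wide kinase profiling panel.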
In assay [17] the target is Dual specificity protein kinase CLK4 (Homo sapiens, UniProt Q9HAZ1). The class given is functional.

The structures appear in SMILES notation. The source made the active and inactive calls.

RAC-alpha serine/threonine-protein kinase, sequence (P31749 whole entry): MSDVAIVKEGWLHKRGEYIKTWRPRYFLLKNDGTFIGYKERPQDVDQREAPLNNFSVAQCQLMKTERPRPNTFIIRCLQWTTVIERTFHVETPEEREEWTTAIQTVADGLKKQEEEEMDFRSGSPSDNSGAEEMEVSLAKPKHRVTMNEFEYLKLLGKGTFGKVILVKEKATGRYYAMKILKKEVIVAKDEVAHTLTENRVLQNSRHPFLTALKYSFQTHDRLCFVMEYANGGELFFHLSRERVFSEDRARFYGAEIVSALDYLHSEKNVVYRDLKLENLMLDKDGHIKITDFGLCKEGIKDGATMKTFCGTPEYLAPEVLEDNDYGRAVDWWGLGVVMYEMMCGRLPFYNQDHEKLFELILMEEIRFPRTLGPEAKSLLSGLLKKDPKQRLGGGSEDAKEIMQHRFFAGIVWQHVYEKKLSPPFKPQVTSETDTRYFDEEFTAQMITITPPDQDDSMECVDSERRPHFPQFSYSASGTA
3-phosphoinositide-dependent protein kinase 1, sequence (O15530 whole entry): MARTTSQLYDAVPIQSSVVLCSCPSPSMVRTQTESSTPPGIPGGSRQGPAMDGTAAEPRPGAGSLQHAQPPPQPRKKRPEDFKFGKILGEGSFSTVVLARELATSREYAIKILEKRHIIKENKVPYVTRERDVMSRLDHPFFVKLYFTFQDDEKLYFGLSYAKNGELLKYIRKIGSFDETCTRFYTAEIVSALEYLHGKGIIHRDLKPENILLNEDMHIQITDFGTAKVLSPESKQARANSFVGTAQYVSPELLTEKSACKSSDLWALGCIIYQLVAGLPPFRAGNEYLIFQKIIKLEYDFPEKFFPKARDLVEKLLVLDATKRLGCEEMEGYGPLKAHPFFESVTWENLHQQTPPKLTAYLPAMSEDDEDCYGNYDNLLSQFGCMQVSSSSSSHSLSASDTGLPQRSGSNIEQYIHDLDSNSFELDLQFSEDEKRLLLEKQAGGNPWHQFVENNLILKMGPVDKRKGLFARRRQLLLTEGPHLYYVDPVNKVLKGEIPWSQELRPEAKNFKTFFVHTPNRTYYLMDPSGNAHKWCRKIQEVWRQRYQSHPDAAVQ
Ribosomal protein S6 kinase alpha-5, sequence (O75582 whole entry): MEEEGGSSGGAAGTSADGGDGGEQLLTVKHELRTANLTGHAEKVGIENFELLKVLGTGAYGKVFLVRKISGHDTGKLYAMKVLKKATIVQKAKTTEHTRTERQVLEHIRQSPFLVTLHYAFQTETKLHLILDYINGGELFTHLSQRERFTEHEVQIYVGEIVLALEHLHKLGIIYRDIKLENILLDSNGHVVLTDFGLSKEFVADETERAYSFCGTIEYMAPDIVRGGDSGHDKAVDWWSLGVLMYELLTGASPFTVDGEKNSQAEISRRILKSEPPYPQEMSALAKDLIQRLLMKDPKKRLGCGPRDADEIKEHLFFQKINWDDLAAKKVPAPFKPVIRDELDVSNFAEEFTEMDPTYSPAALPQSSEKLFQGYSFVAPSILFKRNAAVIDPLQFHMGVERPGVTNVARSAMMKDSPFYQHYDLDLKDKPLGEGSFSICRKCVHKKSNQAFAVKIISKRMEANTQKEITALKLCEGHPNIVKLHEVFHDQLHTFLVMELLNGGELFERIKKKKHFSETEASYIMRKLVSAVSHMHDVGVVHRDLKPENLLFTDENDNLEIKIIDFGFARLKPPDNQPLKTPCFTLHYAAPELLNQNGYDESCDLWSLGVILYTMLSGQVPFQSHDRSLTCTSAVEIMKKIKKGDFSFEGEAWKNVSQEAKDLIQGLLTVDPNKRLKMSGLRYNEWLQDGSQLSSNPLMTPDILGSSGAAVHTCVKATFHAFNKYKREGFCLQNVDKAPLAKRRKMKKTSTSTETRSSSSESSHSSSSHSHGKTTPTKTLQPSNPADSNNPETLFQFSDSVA
Serine/threonine-protein kinase D3, sequence (O94806 whole entry): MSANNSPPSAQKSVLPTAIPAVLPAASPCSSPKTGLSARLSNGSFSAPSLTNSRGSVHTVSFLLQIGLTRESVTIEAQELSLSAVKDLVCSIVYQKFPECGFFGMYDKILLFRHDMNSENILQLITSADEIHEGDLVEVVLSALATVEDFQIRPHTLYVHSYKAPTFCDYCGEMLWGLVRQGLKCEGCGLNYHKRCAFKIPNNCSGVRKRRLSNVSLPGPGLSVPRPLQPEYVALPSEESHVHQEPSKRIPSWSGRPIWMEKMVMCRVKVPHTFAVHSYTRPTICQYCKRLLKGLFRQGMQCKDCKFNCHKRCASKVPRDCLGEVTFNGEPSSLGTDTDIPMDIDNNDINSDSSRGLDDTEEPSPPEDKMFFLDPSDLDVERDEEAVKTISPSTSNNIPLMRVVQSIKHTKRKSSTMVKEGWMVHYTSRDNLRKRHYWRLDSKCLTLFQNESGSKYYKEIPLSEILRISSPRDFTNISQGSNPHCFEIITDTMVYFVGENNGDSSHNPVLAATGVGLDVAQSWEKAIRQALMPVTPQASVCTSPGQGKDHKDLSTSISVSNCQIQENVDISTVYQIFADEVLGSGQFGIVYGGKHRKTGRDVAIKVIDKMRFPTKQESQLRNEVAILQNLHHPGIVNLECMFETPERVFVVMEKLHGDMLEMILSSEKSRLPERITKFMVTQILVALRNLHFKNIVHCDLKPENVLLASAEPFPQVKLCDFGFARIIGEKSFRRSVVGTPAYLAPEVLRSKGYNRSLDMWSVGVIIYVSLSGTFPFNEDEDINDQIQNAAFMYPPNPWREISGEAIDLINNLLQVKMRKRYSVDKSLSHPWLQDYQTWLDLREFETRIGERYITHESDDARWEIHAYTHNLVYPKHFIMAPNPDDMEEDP
Tyrosine-protein kinase ITK/TSK, sequence (Q08881 whole entry): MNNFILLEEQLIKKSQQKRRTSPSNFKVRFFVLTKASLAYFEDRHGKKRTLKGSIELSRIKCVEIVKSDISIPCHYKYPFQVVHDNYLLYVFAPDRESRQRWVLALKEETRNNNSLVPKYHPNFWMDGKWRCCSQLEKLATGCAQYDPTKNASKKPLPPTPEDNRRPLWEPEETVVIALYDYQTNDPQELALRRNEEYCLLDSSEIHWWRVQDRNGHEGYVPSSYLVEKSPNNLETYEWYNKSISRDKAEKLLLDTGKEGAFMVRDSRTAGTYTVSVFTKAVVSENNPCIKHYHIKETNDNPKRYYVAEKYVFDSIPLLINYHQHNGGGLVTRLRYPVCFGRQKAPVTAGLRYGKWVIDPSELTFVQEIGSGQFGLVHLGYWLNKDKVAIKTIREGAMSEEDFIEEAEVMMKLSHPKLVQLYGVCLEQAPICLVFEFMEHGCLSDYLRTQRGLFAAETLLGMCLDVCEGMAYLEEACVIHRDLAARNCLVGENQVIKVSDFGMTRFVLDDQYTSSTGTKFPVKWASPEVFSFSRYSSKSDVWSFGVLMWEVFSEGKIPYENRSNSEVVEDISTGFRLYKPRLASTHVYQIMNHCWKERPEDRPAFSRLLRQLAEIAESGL
Glycogen synthase kinase-3 alpha, sequence (P49840 whole entry): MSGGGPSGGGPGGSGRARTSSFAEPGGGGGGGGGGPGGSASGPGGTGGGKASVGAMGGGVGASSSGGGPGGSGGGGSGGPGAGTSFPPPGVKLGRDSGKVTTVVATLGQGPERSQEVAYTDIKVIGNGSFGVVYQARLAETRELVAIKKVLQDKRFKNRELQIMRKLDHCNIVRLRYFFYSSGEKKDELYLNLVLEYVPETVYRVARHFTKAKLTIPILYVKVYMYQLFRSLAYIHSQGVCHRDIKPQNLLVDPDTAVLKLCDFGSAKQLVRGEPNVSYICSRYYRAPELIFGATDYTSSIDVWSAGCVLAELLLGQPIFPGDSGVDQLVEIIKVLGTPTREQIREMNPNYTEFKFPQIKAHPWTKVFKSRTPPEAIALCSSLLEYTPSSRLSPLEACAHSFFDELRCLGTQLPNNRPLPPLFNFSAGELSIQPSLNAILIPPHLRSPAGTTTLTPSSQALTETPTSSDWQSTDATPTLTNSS
Inhibitor of nuclear factor kappa-B kinase subunit alpha, sequence (O15111 whole entry): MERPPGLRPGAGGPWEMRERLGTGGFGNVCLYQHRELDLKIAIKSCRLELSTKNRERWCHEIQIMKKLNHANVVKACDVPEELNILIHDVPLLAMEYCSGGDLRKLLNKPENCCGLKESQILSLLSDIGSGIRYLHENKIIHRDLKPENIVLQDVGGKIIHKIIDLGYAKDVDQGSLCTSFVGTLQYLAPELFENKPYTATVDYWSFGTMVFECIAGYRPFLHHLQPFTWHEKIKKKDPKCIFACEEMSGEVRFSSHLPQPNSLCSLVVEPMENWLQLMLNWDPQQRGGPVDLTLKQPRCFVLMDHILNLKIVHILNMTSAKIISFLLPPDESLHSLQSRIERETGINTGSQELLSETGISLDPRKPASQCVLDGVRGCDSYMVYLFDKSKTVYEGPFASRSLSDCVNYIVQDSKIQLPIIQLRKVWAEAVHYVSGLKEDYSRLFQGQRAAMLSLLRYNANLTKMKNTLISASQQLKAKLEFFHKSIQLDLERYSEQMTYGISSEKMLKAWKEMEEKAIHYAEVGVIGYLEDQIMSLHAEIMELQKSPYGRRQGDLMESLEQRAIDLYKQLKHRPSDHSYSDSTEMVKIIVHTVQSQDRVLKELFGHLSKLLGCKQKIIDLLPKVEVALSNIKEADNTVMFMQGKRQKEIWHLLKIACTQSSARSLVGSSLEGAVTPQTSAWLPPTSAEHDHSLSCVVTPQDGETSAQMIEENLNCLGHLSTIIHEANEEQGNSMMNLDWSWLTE
MAP kinase-activated protein kinase 2, sequence (P49137 whole entry): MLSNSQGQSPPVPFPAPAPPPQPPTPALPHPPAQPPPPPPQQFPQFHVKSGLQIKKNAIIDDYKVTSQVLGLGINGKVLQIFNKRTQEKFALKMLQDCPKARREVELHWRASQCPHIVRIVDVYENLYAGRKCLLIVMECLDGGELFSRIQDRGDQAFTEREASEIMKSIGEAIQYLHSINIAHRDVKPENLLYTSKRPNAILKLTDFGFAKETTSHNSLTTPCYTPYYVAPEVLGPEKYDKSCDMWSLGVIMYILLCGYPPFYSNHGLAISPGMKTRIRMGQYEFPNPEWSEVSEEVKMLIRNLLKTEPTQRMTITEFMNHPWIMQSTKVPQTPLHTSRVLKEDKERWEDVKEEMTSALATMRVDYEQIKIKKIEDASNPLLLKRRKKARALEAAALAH

`O=[N+]([O-])c1c(Nc2ccccn2)cc(Cl)c2nonc12`: the EC50 in assay [1] was 5.44 µM (inconclusive). Moreover, in assay [2], the half-maximal cytotoxic concentration (CC50) was 16.7 µM (active).
Turning to `CC[C@@H](C)[C@H](CNC)NC[C@@H](Cc1cccc2ccccc12)NCCc1cccc(C(F)(F)F)c1`, the EC50 was 8.36 µM (active) in assay [3] and > 54.7 µM (inactive) in the assay on HEK293. The IC50 in assay [4] was > 20 µM (inactive).
As to `CC(C)(CO)CNc1nccc(-c2c(-c3ccc(F)cc3)nc3c(CC4CC4)nccn23)n1`, the Ki in assay [5] was > 7.94 µM (inactive); in assay [6] it was 5.01 µM (active); on Aurora kinase A it was > 3.98 µM (inactive); in assay [7] it was > 7.94 µM (inactive); in assay [8], > 5.01 µM (inactive); in assay [9], > 2 µM (inactive). In addition, the Ki in [10] is > 1.58 µM (inactive); in [11], > 7.94 µM (inactive); in [12] it was > 7.94 µM (inactive); in assay [13], > 3.98 µM (inactive); in assay [14], > 7.94 µM (inactive); in assay [15], > 3.98 µM (inactive). Also, the Ki in [16] is > 3.98 µM (inactive); in assay [17] it was 3.98 µM (active).
